Where a SMILES comes first, the peptide text is derived from it. [ ]: non-standard residue; d: D form. Ahx = NCCCCCC(=O)O
Experiments:
[1] = target: T1, Neuropeptide Y receptor type 1 (Homo sapiens, UniProt P25929); test: Tested against neuropeptide Y1 receptors using SK-N-MC human neuroblastoma cells; type: cell-based
T1 sequence (P25929 whole entry): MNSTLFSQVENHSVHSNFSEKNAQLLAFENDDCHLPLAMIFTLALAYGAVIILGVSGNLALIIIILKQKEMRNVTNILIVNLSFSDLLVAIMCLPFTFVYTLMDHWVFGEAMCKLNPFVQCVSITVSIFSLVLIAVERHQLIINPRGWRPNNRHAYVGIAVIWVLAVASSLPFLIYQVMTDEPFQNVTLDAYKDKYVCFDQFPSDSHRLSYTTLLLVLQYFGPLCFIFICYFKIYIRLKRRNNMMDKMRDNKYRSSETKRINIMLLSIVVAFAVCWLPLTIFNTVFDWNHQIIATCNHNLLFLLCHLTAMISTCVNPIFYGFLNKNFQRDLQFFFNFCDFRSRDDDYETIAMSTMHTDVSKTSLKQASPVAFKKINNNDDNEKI

[2] = target: T2, Neuropeptide Y receptor type 2 (Homo sapiens, UniProt P49146); test: Tested against neuropeptide Y2 receptors using SK-N-BE2 human neuroblastoma cells
T2 sequence (P49146 whole entry): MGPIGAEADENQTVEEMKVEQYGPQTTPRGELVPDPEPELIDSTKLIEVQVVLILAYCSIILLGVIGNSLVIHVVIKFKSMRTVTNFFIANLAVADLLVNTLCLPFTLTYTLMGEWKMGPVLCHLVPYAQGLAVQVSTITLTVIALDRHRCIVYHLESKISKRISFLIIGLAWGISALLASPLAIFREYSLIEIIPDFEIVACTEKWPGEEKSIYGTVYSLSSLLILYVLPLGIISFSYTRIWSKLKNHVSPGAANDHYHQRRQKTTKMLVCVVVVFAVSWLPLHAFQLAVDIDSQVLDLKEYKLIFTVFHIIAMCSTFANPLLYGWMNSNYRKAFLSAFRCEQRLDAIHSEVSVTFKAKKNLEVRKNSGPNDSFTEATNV

| Compound | Ki ([1]; sk-n-mc) [nM] | Ki [2] [nM] | Ki [1] [nM] |
| --- | --- | --- | --- |
| CC[C@H](C)[C@H](NC(=O)[C@H](CC(C)C)NC(=O)[C@H](CC(N)=O)NC(=O)[C@@H](NC(=O)[C@H]1CNC(=O)CC[C@H](NC(=O)[C@@H](N)Cc2ccc(O)cc2)C(=O)N[C@@H](CO)C(=O)N[C@@H](CCCCN)C(=O)NCCCCCC(=O)N[C@@H](CCCN=C(N)N)C(=O)N[C@@H](Cc2c[nH]cn2)C(=O)N1)[C@@H](C)CC)C(=O)N[C@H](C(=O)N[C@@H](CCCN=C(N)N)C(=O)N[C@@H](CCC(N)=O)C(=O)N[C@@H](CCCN=C(N)N)C(=O)N[C@@H](Cc1ccc(O)cc1)C(N)=O)[C@@H](C)O | 220 | 2.3 |  |
| CC[C@H](C)[C@H](NC(=O)[C@H](CC(C)C)NC(=O)[C@H](CC(N)=O)NC(=O)[C@@H](NC(=O)[C@H]1CNC(=O)CC[C@H](NC(=O)[C@@H](N)Cc2ccc(O)cc2)C(=O)N[C@@H](CO)C(=O)N[C@@H](CCCCN)C(=O)N2CCC[C@H]2C(=O)N[C@H](C)C(=O)N[C@@H](CCCN=C(N)N)C(=O)N[C@@H](Cc2c[nH]cn2)C(=O)N1)[C@@H](C)CC)C(=O)N[C@H](C(=O)N[C@@H](CCCN=C(N)N)C(=O)N[C@@H](CCC(N)=O)C(=O)N[C@@H](CCCN=C(N)N)C(=O)N[C@@H](Cc1ccc(O)cc1)C(N)=O)[C@@H](C)O | > 1000 | 0.3 |  |
| CC[C@H](C)[C@H](NC(=O)[C@H](CC(C)C)NC(=O)[C@H](CC(N)=O)NC(=O)[C@@H](NC(=O)[C@H]1CNC(=O)C[C@H](NC(=O)[C@@H](N)Cc2ccc(O)cc2)C(=O)N[C@@H](CO)C(=O)N[C@@H](CCCCN)C(=O)N2CCC[C@H]2C(=O)N[C@H](C)C(=O)N[C@@H](CCCNC(=N)N)C(=O)N[C@@H](Cc2c[nH]cn2)C(=O)N1)[C@@H](C)CC)C(=O)N[C@H](C(=O)N[C@@H](CCCNC(=N)N)C(=O)N[C@@H](CCC(N)=O)C(=O)N[C@@H](CCCNC(=N)N)C(=O)N[C@@H](Cc1ccc(O)cc1)C(=O)O)[C@@H](C)O | > 1000 | 1.5 |  |
| CC[C@H](C)[C@H](NC(=O)[C@H](CC(C)C)NC(=O)[C@H](CC(N)=O)NC(=O)[C@@H](NC(=O)[C@H]1CNC(=O)CC[C@H](NC(=O)[C@@H](N)Cc2ccc(O)cc2)C(=O)N[C@@H](CO)C(=O)N[C@@H](CCCCN)C(=O)N2CCC[C@H]2C(=O)NCC(=O)N[C@@H](CCCN=C(N)N)C(=O)N[C@@H](Cc2c[nH]cn2)C(=O)N1)[C@@H](C)CC)C(=O)N[C@H](C(=O)N[C@@H](CCCN=C(N)N)C(=O)N[C@@H](CCC(N)=O)C(=O)N[C@@H](CCCN=C(N)N)C(=O)N[C@@H](Cc1ccc(O)cc1)C(N)=O)[C@@H](C)O | 130 | 0.3 |  |
| CC[C@H](C)[C@H](NC(=O)[C@H](CC(C)C)NC(=O)[C@H](CC(N)=O)NC(=O)[C@@H](NC(=O)[C@H]1CNC(=O)CC[C@@H](NC(=O)[C@@H](N)Cc2ccc(O)cc2)C(=O)N[C@@H](CO)C(=O)N[C@@H](CCCCN)C(=O)N2CCC[C@H]2C(=O)N[C@H](C)C(=O)N[C@@H](CCCN=C(N)N)C(=O)N[C@@H](Cc2c[nH]cn2)C(=O)N1)[C@@H](C)CC)C(=O)N[C@H](C(=O)N[C@@H](CCCN=C(N)N)C(=O)N[C@@H](CCC(N)=O)C(=O)N[C@@H](CCCN=C(N)N)C(=O)N[C@@H](Cc1ccc(O)cc1)C(N)=O)[C@@H](C)O | 230 | 1.1 |  |
| CC[C@H](C)[C@@H]1NC(=O)[C@H](CC(C)C)NC(=O)[C@H](CC(N)=O)NC(=O)[C@@H](NC(=O)[C@H]2CNC(=O)CC[C@H](NC(=O)[C@@H](N)Cc3ccc(O)cc3)C(=O)N[C@@H](CO)C(=O)N[C@@H](CCCCN)C(=O)N3CCC[C@H]3C(=O)N[C@H](C)C(=O)N[C@@H](CCCN=C(N)N)C(=O)N[C@@H](Cc3c[nH]cn3)C(=O)N2)CCCCNC(=O)CC[C@@H](C(=O)N[C@@H](CCCN=C(N)N)C(=O)N[C@@H](CCC(N)=O)C(=O)N[C@@H](CCCN=C(N)N)C(=O)N[C@@H](Cc2ccc(O)cc2)C(N)=O)NC1=O | > 1000 | 0.3 |  |
| CC[C@H](C)[C@H](NC(=O)[C@H](Cc1ccc(O)cc1)NC(=O)[C@H](Cc1c[nH]cn1)NC(=O)[C@H](CCCN=C(N)N)NC(=O)[C@H](CC(C)C)NC(=O)[C@H](C)NC(=O)[C@H](CO)NC(=O)[C@H](Cc1ccc(O)cc1)NC(=O)[C@H](Cc1ccc(O)cc1)NC(=O)[C@H](CCCN=C(N)N)NC(=O)[C@H](C)NC(=O)[C@H](CC(C)C)NC(=O)[C@H](CC(=O)O)NC(=O)[C@H](CCC(=O)O)NC(=O)[C@H](C)NC(=O)[C@@H]1CCCN1)C(=O)N[C@@H](CC(N)=O)C(=O)N[C@@H](CC(C)C)C(=O)N[C@H](C(=O)N[C@H](C(=O)N[C@@H](CCCN=C(N)N)C(=O)N[C@@H](CCC(N)=O)C(=O)N[C@@H](CCCN=C(N)N)C(=O)N[C@@H](Cc1ccc(O)cc1)C(=O)O)[C@@H](C)O)[C@@H](C)CC |  | 0.8 |  |
| CC[C@H](C)[C@H](NC(=O)[C@H](Cc1ccc(O)cc1)NC(=O)[C@H](Cc1cnc[nH]1)NC(=O)[C@H](CCCNC(=N)N)NC(=O)[C@@H](C)NC(=O)[C@@H]1CCCN1C(=O)[C@H](CCCCN)NC(=O)[C@H](CO)NC(=O)[C@@H]1CCCN1C(=O)[C@@H](N)Cc1ccc(O)cc1)C(=O)N[C@@H](CC(N)=O)C(=O)N[C@@H](CC(C)C)C(=O)N[C@H](C(=O)N[C@H](C(=O)N[C@@H](CCCNC(=N)N)C(=O)N[C@@H](CCC(N)=O)C(=O)N[C@@H](CCCNC(=N)N)C(=O)N[C@@H](Cc1ccc(O)cc1)C(=O)O)[C@@H](C)O)[C@@H](C)CC |  | 0.9 | 290 |
| CC[C@H](C)[C@H](NC(=O)[C@H](CC(C)C)NC(=O)[C@H](CC(N)=O)NC(=O)[C@@H](NC(=O)[C@H]1CCCCNC(=O)C[C@H](NC(=O)[C@@H](N)Cc2ccc(O)cc2)C(=O)N[C@@H](CO)C(=O)N[C@@H](CCCCN)C(=O)N2CCC[C@H]2C(=O)N[C@H](C)C(=O)N[C@@H](CCCNC(=N)N)C(=O)N[C@@H](Cc2cnc[nH]2)C(=O)N1)[C@@H](C)CC)C(=O)N[C@H](C(=O)N[C@@H](CCCNC(=N)N)C(=O)N[C@@H](CCC(N)=O)C(=O)N[C@@H](CCCNC(=N)N)C(=O)N[C@@H](Cc1ccc(O)cc1)C(=O)O)[C@@H](C)O |  | 0.5 | > 1000 |
| CC[C@H](C)[C@@H]1NC(=O)[C@H](CC(C)C)NC(=O)[C@H](CC(N)=O)NC(=O)[C@@H](NC(=O)[C@H](Cc2ccc(O)cc2)NC(=O)[C@H](Cc2cnc[nH]2)NC(=O)[C@H](CCCNC(=N)N)NC(=O)[C@@H](C)NC(=O)[C@@H]2CCCN2C(=O)[C@H](CCCCN)NC(=O)[C@H](CO)NC(=O)[C@@H]2CCCN2C(=O)[C@@H](N)Cc2ccc(O)cc2)CCCCNC(=O)CC[C@@H](C(=O)N[C@@H](CCCNC(=N)N)C(=O)N[C@@H](CCC(N)=O)C(=O)N[C@@H](CCCNC(=N)N)C(=O)N[C@@H](Cc2ccc(O)cc2)C(=O)O)NC1=O |  | 0.5 | > 1000 |
| CC[C@H](C)[C@H](NC(=O)[C@H](Cc1ccc(O)cc1)NC(=O)[C@H](Cc1cnc[nH]1)NC(=O)[C@H](CCCNC(=N)N)NC(=O)CCCCCNC(=O)[C@H](CCCCN)NC(=O)[C@H](CO)NC(=O)[C@@H]1CCCN1C(=O)[C@@H](N)Cc1ccc(O)cc1)C(=O)N[C@@H](CC(N)=O)C(=O)N[C@@H](CC(C)C)C(=O)N[C@H](C(=O)N[C@H](C(=O)N[C@@H](CCCNC(=N)N)C(=O)N[C@@H](CCC(N)=O)C(=O)N[C@@H](CCCNC(=N)N)C(=O)N[C@@H](Cc1ccc(O)cc1)C(=O)O)[C@@H](C)O)[C@@H](C)CC (H-YPSK[Ahx]RHYINLITRQRY-OH) |  | 1 | 261 |
| H-YPSKPGRHYINLITRQRY-OH |  | 3.1 |  |

Source: ChEMBL document CHEMBL1126588 (J Med Chem, 1993)
